≈ marks a conversion by molar mass, not a printed value. Where two headings read alike, the source gives them in different places. A value given as a limit tells only on which side of the number the result lay.

This is an account of results in paper PMC6270420, “Antibacterial Activity of Salicylanilide 4-(Trifluoromethyl)benzoates” (Molecules, 2013).

Experiment [1] has as its system Mycobacterium avium 330/88. Description: Antimycobacterial MIC micromethod. The class given is cell-based.
Experiment [2] deals with M. kansasii 6509/96 (clinically isolated strain). Description: Antimycobacterial MIC micromethod. The class given is cell-based. The following applies: Mycobacterium kansasii, read-out: MIC M. kansasii 6509/96.
A further experiment deals with Mtb. 9449/2006. Description: microbe, parasite or virus in culture. Format: cell-based. The following applies: Mycobacterium tuberculosis, read-out: MIC Mtb. 9449/2006.
A further experiment has as its system Mtb. 234/2005. Description: microbe, parasite or virus in culture. The class given is cell-based. The following applies: Mycobacterium tuberculosis, read-out: MIC Mtb. 234/2005.
A further experiment concerns Mtb. Praha 1. Kind of experiment: microbe, parasite or virus in culture. Format: cell-based. The following applies: Mycobacterium tuberculosis, read-out: MIC Mtb. Praha 1.
The test system of a further experiment is Mtb. Praha 131 (XDR-TB). Kind of experiment: microbe, parasite or virus in culture. The following applies: Mycobacterium tuberculosis, read-out: MIC Mtb. Praha 131 (XDR-TB). Format: cell-based.
For experiment [3], the system named is Enterococcus sp. J 14365/08. Kind of experiment: Antibacterial microdilution broth method. The class given is cell-based. The following applies: read-out: MIC/IC90 Enterococcus sp. J 14365/08. The essentials: (§1)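 Mueller-Hinton broth pH 7.4; M07-A07-based microdilution; cpds in DMSO, final 500–0.49 […]; inoculum 0.5 McFarland; 35 °C, dark, humid, 24 and 48 h; MIC = ≥90% growth reduction vs control, visual + A540.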

Experiment [4] has as its system Escherichia coli CCM 4517. Kind of experiment: Antibacterial microdilution broth method. The class given is cell-based. The following applies: read-out: MIC/IC90 E. coli CCM 4517. The gist of the method: as §1
In experiment [5] the test system is Staphylococcus aureus CCM 4516/08. Kind of experiment: Antibacterial microdilution broth method. The following applies: read-out: MIC/IC90 S. aureus CCM 4516/08. Format: cell-based. The essentials: as §1
The subject of experiment [6] is Staphylococcus epidermidis H 6966/08. Description: Antibacterial microdilution broth method. The following applies: read-out: MIC/IC90 S. epidermidis H 6966/08. The class given is cell-based. The gist of the method: as §1
In general terms: Dilution methods test growth across graded concentrations, often in twofold steps.

The test system of experiment [7] is methicillin-resistant Staphylococcus aureus H 5996/08 (MRSA). Description: Antibacterial microdilution broth method. The following applies: read-out: MIC/IC90 MRSA H 5996/08. The class given is cell-based. The gist of the method: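 MIC values reflect a 90% or greater drop in growth relative to control, judged by eye and by absorbance at 540 nm. Testing used a modified M07-A07 broth microdilution in pH 7.4 Mueller-Hinton medium over 500–0.49 […] final compound, with 24 h and 48 h incubation at 35 °C.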

In another experiment the test system is HepG2 cells. Kind of experiment: Cytotoxicity evaluation (CellTiter 96 MTS). The following applies: Homo sapiens, HepG2, 24 h, read-out: IC50 HepG2. The class given is cell-based, human. The essentials: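 Human HepG2 cells (passages 21–24) seeded 1 × 10^4/well, treated next day with 0.01–20 µM compound (4-(trifluoromethyl)benzoic acid 10–4,000 µM), triplicates, 24 h at 37 °C. MTS reduction read at 490 nm after 2 h; IC50 = concentration cutting viability to 50% of control.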

Regarding `O=C(Oc1ccc(Cl)cc1C(=O)Nc1ccc(Cl)c(Cl)c1)c1ccc(C(F)(F)F)cc1` [1e], the MIC in [1] (330/88, 336 h, 14 d) is 4 µM (≈ 1.95 µg/mL); in experiment [1] (330/88, 504 h, 21 d) it was 4 µM (≈ 1.95 µg/mL); in experiment [2] (168 h, 7 d), 1 µM (≈ 0.489 µg/mL); in experiment [2] (336 h, 14 d) it was 2 µM (≈ 0.977 µg/mL); in experiment [2] (504 h, 21 d), 4 µM (≈ 1.95 µg/mL); in the experiment with Mtb. 9449/2006 (336 h), 2 µM (≈ 0.977 µg/mL). In addition, the MIC came out at 2 µM (≈ 0.977 µg/mL) in the experiment on Mtb. 9449/2006 (504 h); 1 µM (≈ 0.489 µg/mL) with Mtb. 234/2005 (336 h); 2 µM (≈ 0.977 µg/mL) with Mtb. 234/2005 (504 h); 1 µM (≈ 0.489 µg/mL) in the experiment on Mtb. Praha 1 (336 h); 2 µM (≈ 0.977 µg/mL) with Mtb. Praha 1 (504 h); 2 µM (≈ 0.977 µg/mL) with Mtb. Praha 131 (XDR-TB) (336 h). Moreover, the MIC with Mtb. Praha 131 (XDR-TB) (504 h) was 2 µM (≈ 0.977 µg/mL); in experiment [3] (SP.J14365/08, 24 h) it was 0.49 µM (≈ 0.239 µg/mL); in experiment [3] (SP.J14365/08, 48 h) it was 3.9 µM (≈ 1.91 µg/mL); in experiment [4] (CCM4517, 24 h), more than 500 µM; in experiment [4] (CCM4517, 48 h), more than 500 µM; in experiment [5] (CCM4516, 24 h), 0.49 µM (≈ 0.239 µg/mL). The MIC came out at 0.98 µM (≈ 0.479 µg/mL) in experiment [5] (CCM4516, 48 h); 0.49 µM (≈ 0.239 µg/mL) in experiment [6] (H6966/08, 24 h); 0.98 µM (≈ 0.479 µg/mL) in experiment [6] (H6966/08, 48 h); 0.49 µM (≈ 0.239 µg/mL) in experiment [7] (24 h); 0.98 µM (≈ 0.479 µg/mL) in experiment [7] (48 h). For the same compound, the IC50 in the experiment with HepG2 cells turned out to be 3.13 µM.

In the case of `O=C(Oc1cc(Cl)ccc1C(=O)Nc1ccc(Br)cc1)c1ccc(C(F)(F)F)cc1` [1j], the MIC in experiment [1] (330/88, 336 h, 14 d) turned out to be 8 µM (≈ 3.99 µg/mL); in experiment [1] (330/88, 504 h, 21 d), 8 µM (≈ 3.99 µg/mL); in experiment [2] (168 h, 7 d), 2 µM (≈ 0.997 µg/mL); in experiment [2] (336 h, 14 d) it was 4 µM (≈ 1.99 µg/mL); in [2] (504 h, 21 d), 4 µM (≈ 1.99 µg/mL); with Mtb. 9449/2006 (336 h), 2 µM (≈ 0.997 µg/mL). For the same compound, the MIC in the experiment with Mtb. 9449/2006 (504 h) came to 2 µM (≈ 0.997 µg/mL); in the experiment on Mtb. 234/2005 (336 h) it was 2 µM (≈ 0.997 µg/mL); in the experiment on Mtb. 234/2005 (504 h), 2 µM (≈ 0.997 µg/mL); with Mtb. Praha 1 (336 h) it was 2 µM (≈ 0.997 µg/mL); in the experiment on Mtb. Praha 1 (504 h) it was 2 µM (≈ 0.997 µg/mL); in the experiment with Mtb. Praha 131 (XDR-TB) (336 h), 1 µM (≈ 0.499 µg/mL). Besides, the MIC with Mtb. Praha 131 (XDR-TB) (504 h) was 2 µM (≈ 0.997 µg/mL); in experiment [3] (SP.J14365/08, 24 h), 1.95 µM (≈ 0.972 µg/mL); in experiment [3] (SP.J14365/08, 48 h) it was 7.81 µM (≈ 3.89 µg/mL); in experiment [4] (CCM4517, 24 h), 250 µM (≈ 125 µg/mL); in experiment [4] (CCM4517, 48 h), more than 250 µM; in [5] (CCM4516, 24 h), 0.49 µM (≈ 0.244 µg/mL). In addition, the MIC in experiment [5] (CCM4516, 48 h) came out at 0.98 µM (≈ 0.489 µg/mL); in [6] (H6966/08, 24 h) it was 0.49 µM (≈ 0.244 µg/mL); in experiment [6] (H6966/08, 48 h), 0.98 µM (≈ 0.489 µg/mL); in [7] (24 h), 0.49 µM (≈ 0.244 µg/mL); in experiment [7] (48 h), 0.98 µM (≈ 0.489 µg/mL). The IC50 in the experiment on HepG2 cells is 4.82 µM.

On to `O=C(Oc1ccc(Cl)cc1C(=O)Nc1ccc(C(F)(F)F)cc1)c1ccc(C(F)(F)F)cc1` [1o, 4-chloro-2-[4-(trifluoromethyl)phenylcarbamoyl]phenyl 4-(trifluoromethyl)benzoate], for which the MIC in experiment [1] (330/88, 336 h, 14 d) amounted to 1 µM (≈ 0.488 µg/mL); in experiment [1] (330/88, 504 h, 21 d) it was 4 µM (≈ 1.95 µg/mL); in experiment [2] (168 h, 7 d), 1 µM (≈ 0.488 µg/mL); in experiment [2] (336 h, 14 d), 2 µM (≈ 0.976 µg/mL); in [2] (504 h, 21 d), 2 µM (≈ 0.976 µg/mL); in the experiment on Mtb. 9449/2006 (336 h), 1 µM (≈ 0.488 µg/mL). Moreover, the MIC in the experiment on Mtb. 9449/2006 (504 h) came out at 1 µM (≈ 0.488 µg/mL); in the experiment with Mtb. 234/2005 (336 h), 0.5 µM (≈ 0.244 µg/mL); in the experiment on Mtb. 234/2005 (504 h), 1 µM (≈ 0.488 µg/mL); with Mtb. Praha 1 (336 h), 0.5 µM (≈ 0.244 µg/mL); in the experiment with Mtb. Praha 1 (504 h), 0.5 µM (≈ 0.244 µg/mL); in the experiment with Mtb. Praha 131 (XDR-TB) (336 h) it was 0.5 µM (≈ 0.244 µg/mL). Besides, the MIC in the experiment with Mtb. Praha 131 (XDR-TB) (504 h) was 1 µM (≈ 0.488 µg/mL); in experiment [3] (SP.J14365/08, 24 h), 7.81 µM (≈ 3.81 µg/mL); in experiment [3] (SP.J14365/08, 48 h), 62.5 µM (≈ 30.5 µg/mL); in experiment [4] (CCM4517, 24 h) it was more than 125 µM; in experiment [4] (CCM4517, 48 h) it was more than 125 µM; in experiment [5] (CCM4516, 24 h), 3.9 µM (≈ 1.9 µg/mL). Also, the MIC worked out at 7.81 µM (≈ 3.81 µg/mL) in experiment [5] (CCM4516, 48 h); 3.9 µM (≈ 1.9 µg/mL) in [6] (H6966/08, 24 h); 7.81 µM (≈ 3.81 µg/mL) in experiment [6] (H6966/08, 48 h); 3.9 µM (≈ 1.9 µg/mL) in [7] (24 h); 7.81 µM (≈ 3.81 µg/mL) in [7] (48 h). Also, the IC50 in the experiment on HepG2 cells is 1.33 µM.

As usually defined, the IC50 is the midpoint of a concentration-inhibition curve.
